Experimental data taken from US10683278B2 (JINAN UNIVERSITY, priority 2015, dated 2020).

Legend:
[1] = tested on: AXL phosphorylation in MDA-MB-231 cells; experiment: Western Blot, AXL kinase phosphorylation of MDA-MB-231 cells; format: cell-based; details: FIG. 1
Protocol: Effect of quinolone derivatives on AXL kinase phosphorylation of MDA-MB-231 and 4T1 cells A conventional Western Blot was used, which includes four steps: sample preparation; electrophoretic separation; membrane transfer of proteins; and immunological hybridization and developing (protein detection).
1. MDA-MB-231 cells were seeded into a 6-well plate at an appropriate density, cultured for 24 hours until the cell confluency reached about 80%, drug-containing medium at corresponding concentration was added respectively, and co-cultured for 2-24 hours.
2. The medium was discarded at a predetermined time point, the well plate was washed twice with precooled PBS at 4° C. and the residual liquid was washed away.
3. 1×SDS sample buffer (CST recommended, 6-well plate, 300 μL) was added, scraping all the cells in the dish with a cell scraper, and transferring same to a 1.5 mL of EP tube (operated on ice).
4. The cell lysate was sonicated for 10-15 seconds to cut off DNA, so as to reduce sample viscosity.
5. Boil the sample for 5 min.
6. 12000 g of samples were centrifuged at 4° C. for 5 min, and the supernatant was taken and stored at −20° C. or −80° C. for western blot analysis.
1. Electrophoretic separation: 15-20 μL of 8%-12% SDS-PAGE polyacrylamide gel was loaded, with 90 v electrophoresis for the upper gel, and 120 v electrophoresis for the lower gel.
2. Assembly and transferring of the sandwich: submerging the polyacrylamide gel in transfer buffer and equilibrated for 10 min. According to the size of polyacrylamide gel, PVDF membrane (Mili pore) and 6 pieces of filter paper were cut out and placed in transfer buffer and equilibrated for 10 min. The PVDF membrane needs to be immersed in methanol for 3-5 seconds. Placed in such sequence as sponge→3 layers of filter paper→gel→membrane→3 layers of filter paper→sponge. Ensure there are no bubbles.
3. Membrane transferring: the transfer tank was placed in an ice bath, and the sandwich was added. Ensure the gel facing the negative electrode, and the PVDF facing the positive electrode. 1× membrane transferring buffer was added and placed under the constant pressure, subjecting same to membrane transferring at 110 V for 0.5 to 2 h depending on the molecular weight of the protein to be tested.
4. Blocking: the PVDF membrane was removed after the membrane transferring, blocked with blocking solution (1×TBS, containing 0.5% Tween-20 and 5% skim milk powder), and shaked slowly for 2 h on a horizontal shaker.
5. Incubation of the primary antibody: after blocking, diluting the primary antibody (antibody AXL, phosphor-AXL, AKT, phosphor-AKT, GAPDH, etc.) at 1: 200-1:1000. The PVDF membrane and the antibody were incubated overnight in a wet box at 4° C. to allow sufficient binding of the antibody to the protein of interest.
6. […]

[2] = tested on: MDA-MB-231 cells; experiment: Wound-healing and transwell invasion and migration of MDA-MB-231 cells; format: cell-based; details: FIGS. 5 and 6
Protocol: Compounds were tested for their effects on EMT using routine transwell and wound-healing experiments.
MDA-MB-231 breast cancer cells were inoculated into a 6-well plate in 5×10^5 cells/well, and when the cells occupied 100% of the medium, the medium was removed, and a scratch of a constant width was drawn in the middle of the monolayer cell with a 200-μL pipette tip. The cells were washed three times with phosphate buffered saline (PBS) to remove cell debris, followed by addition of 2% FBS with or without TGF-β1 (10 ng/mL) and substances to be tested at different concentrations, and cultured in RPMI-1640 for 24 hours. At the time points of 0 and 24 hour, three scratch areas were selected, and examined and photographed using a phase contrast inverted fluorescence microscopy (CKX41; Olympus) and Image-ProPlus image capture software. The degree of scratch closure was calculated using Adobe Photoshop 7.0.1 software (Adobe Systems Inc., San Jose, Calif.). The final result is determined by averaging three results. […]
1. Cells were trypsinized and centrifuged, then resuspended and counted, and resuspended with serum-free medium, diluted to 5×10^4 to 5×10^5 cells/mL; AXL inhibitor solution at different concentrations were prepared with the cell suspension, and added into the upper chamber, and 800 μL of a medium containing 10% FBS was added into the lower chamber. […]

[3] = tested on: 4T1 cells; experiment: In vivo metastasis of 4T1 xenografts; details: BALB/c mice, 4T1 subcutaneous, oral 30 and 90 mg/kg per day, 21 days
Protocol: BALB/c mice were selected and 4T1 cells (0.5×10^6/mouse) were inoculated subcutaneously on their right sides. Twenty-four days after inoculation, the mice were randomly divided into treatment and control groups (10 in each group). The mice in each group were orally administered for 21 days, and the drug dose in the treatment group was 30 mg/kg and 90 mg/kg of compound 2-lin per day, respectively. The mice were measured for body weight and tumor volume every two days. After the mice reached the end of administration, the liver tissues of mice were excised and collected, fixed with 10% formaldehyde solution, embedded in paraffin, sectioned, and stained with eosin. Microscopic examination of micrometastases in at least three fields of view was performed and the number of liver micrometastases was calculated.
The tumor volume is calculated by the formula of TV=W^2(L/2), wherein L is the length and W is the width.

| Structure (SMILES) | phosphorylation of AXL [1] | phosphorylation of downstream signaling protein AKT [1] | invasion and migration of MDA-MB-231 cells induced by TGF-β1 [2] | growth of in situ tumor [3] | number and size of liver metastasis [3] |
| --- | --- | --- | --- | --- | --- |
| CCc1ccc2c(c1)c(=O)c(C(=O)Nc1ccc(Oc3ncnc4[nH]cc(-c5ccccc5)c34)c(F)c1)c(C)n2C [TL4800075, 6-ethyl-N-(3-fluoro-4-((5-phenyl-7H-pyrrolo[2,3-d]pyrimidin-4-yl)oxy)phenyl)-1,2-dimethyl-4-oxo-1,4-dihydroquinoline-3-carboxamide] | significantly inhibit | significantly inhibit | inhibit the invasion and migration of breast cancer MDA-MB-231 cells induced by TGF-β1 in a dose-dependent manner |  |  |
| CCc1ccc2c(c1)c(=O)c(C(=O)Nc1ccc(Oc3ncnc4cc(OC)c(OC)cc34)c(F)c1)c(C)n2C [TL4800191, N-(4-(6,7-dimethoxyquinazolin-4-yloxy)-3-fluorophenyl)-6-ethyl-1,2-dimethyl-4-oxo-1,4-dihydroquinoline-3-carboxamide] | significantly inhibit | significantly inhibit | inhibit the invasion and migration of breast cancer MDA-MB-231 cells induced by TGF-β1 in a dose-dependent manner | no obvious inhibitory effect | inhibit the number and size of liver metastasis in a dose-dependent manner |
